The values below come from US8101777B2, “Ionic liquids based on imidazolium salts incorporating a nitrile functionality” (Ecole Polytechnique Federale de Lausanne, priority 2003, dated 2012).

Series [1] can be described thus: Density determined with a picometer. The following applies: room temperature (20±1° C.), 1.0 ml of sample, average of three. It counts as physicochemical. The protocol: (§1) The 1-methylimidazole and 1,2-dimethylimidazole and chloronitriles are purchased from Fluka, HPF6 and NaBF4 are purchased from Aldrich and are used as received without further purification. The synthesis of the imidazolium salts 1a-5a is performed under an inert atmosphere of dry nitrogen using standard Schlenk techniques in solvents dried using the appropriate reagents and distilled prior to use. All other compounds are made without precautions to exclude air or moisture. IR spectra are recorded on a Perkin-Elmer FT-IR 2000 system. […] Electrospray ionization mass spectra (ESI-MS) are recorded on a ThermoFinnigan LCQ™ Deca XP Plus quadrupole ion trap instrument on sample diluted in methanol.^19 Samples are infused directly into the source at 5 μL min^−1 using a syringe pump and the spray voltage is set at 5 kV and the capillary temperature at 50° C. Samples 2c, 3c, 4a, 4b and 4c are purified by filtration through silica and left under vacuum (ca. 0.1 mm Hg) at 40-50° C. in order to remove traces of salt impurities and volatile components. […] Density is determined with a picometer at room temperature (20±1° C.) on 1.0 ml of sample. The measurements are repeated three times and average values are used. Viscosities are measured with a Brookfield DV-II+ viscometer on 0.50 ml of sample. The temperature of the samples is maintained to 25±1° C. by means of an external temperature controller. The measurements are performed in duplicate.

The nature of series [2]: Viscosity, Brookfield DV-II+ viscometer. Format: physicochemical. How it is done: as §1, with “The temperature of the samples is maintained to 25±1° C. by means of an external temperature controller.” left out
Series [3] in a line: Solubility in common solvents.
Series [4] is described as follows: Stability of the nitrile-functionalised anion towards catalytic hydrogenation. The following applies: 8 mg with RuCl2(PMe3)4 (1 mg) in acetone, H2 40 bar, 35° C., 48 hours. It counts as physicochemical. The protocol: The stability of the nitrile-functionalised anion towards catalytic hydrogenation is tested by pressurising a solution of K[CH3CH(BF3)CH2CN] (8 mg) and RuCl2(PMe3)4 (1 mg) in acetone (0.4 ml) with H2 (40 bar) at 35° C.

[5] abbreviates: 25±1° C., 0.50 ml of sample, duplicate.

In the case of “[1-propylnitrile-3-methylimidazolium]BF4 [[C3CNmim][BF4]]”, in series [1], the Density was determined as 1.87 g/mL. Moreover, the Viscosity in series [2] (20° C.) is 230.0 cp. Besides, the Viscosity in series [2] (setting [5]) is 230 mpa · s. Further, in series [3], the “Solubility in common solvents: Acetone” value is listed as “miscible”, the “Solubility in common solvents: Et2O” value was “immiscible”, the “Solubility in common solvents: EtOH” value is “immiscible” and the “Solubility in common solvents: H2O” value was “miscible”. Further, in series [3], the “Solubility in common solvents: Hexane” value is listed as “immiscible”.
Compound “[1-butylnitrile-3-methylimidazolium]Cl [[C4CNmim][Cl]]” yielded a Density in series [1] of 1.61 g/mL. Besides, in series [2] (setting [5]), the Viscosity is 5222 mpa · s. In series [3], the “Solubility in common solvents: Acetone” value was “immiscible”, the “Solubility in common solvents: Et2O” value is “immiscible”, the “Solubility in common solvents: EtOH” value was “miscible” and the “Solubility in common solvents: H2O” value is on record as “miscible”. The “Solubility in common solvents: Hexane” value in series [3] is on record as “immiscible”.
“[1-ethyinitrile-3-methylimidazolium]BF4 [[C2CNmim][BF4]]” had a Density in series [1] of 2.15 g/mL. The compound further had a Viscosity in series [2] (setting [5]) of 65.5 mpa · s. In addition, in series [3], the “Solubility in common solvents: Acetone” value was “miscible”, the “Solubility in common solvents: Et2O” value is reported as “immiscible”, the “Solubility in common solvents: EtOH” value is on record as “miscible” and the “Solubility in common solvents: H2O” value is on record as “miscible”. Moreover, in series [3], the “Solubility in common solvents: Hexane” value is given as “immiscible”.
`Cn1cc[n+](CCCC(=O)O)c1.F[B-](F)(F)F` [[C3COOHmim][BF4], 1-methyl-3-proylcarboxylimidazolium tetrafluoroborate, reference compound] yielded a Viscosity in series [2] (20° C.) of 4415 cp.
On to “[1-butylnitrile-3-methylimidazolium]BF4 [[C4CNmim][BF4]]”, for which, in series [1], the Density is 1.71 g/mL. The compound also came in with a Viscosity in series [2] (setting [5]) of 552.9 mpa · s. Further, in series [3], the “Solubility in common solvents: Acetone” value is given as “miscible”, the “Solubility in common solvents: Et2O” value is on record as “immiscible”, the “Solubility in common solvents: EtOH” value is “immiscible” and the “Solubility in common solvents: H2O” value is reported as “miscible”. The “Solubility in common solvents: Hexane” value in series [3] is “immiscible”.
In series [2] (20° C.), `C=CC[n+]1ccn(C)c1.F[B-](F)(F)F` [[CC═Cmim][BF4], 1-methyl-3-allylimidazolium tetrafluoroborate, reference compound] yielded a Viscosity of 6110 cp.
`CC(CC#N)[B-](F)(F)F.[K+]` (stereo not drawn) [K[CH3CH(BF3)CH2CN]]: the “Reduction of the nitrile-functionalised anion under catalytic hydrogenation” value in series [4] is reported as “No reduction was observed”.
`CCCCn1cc[n+](C)c1.F[P-](F)(F)(F)(F)F` [[C4mim][PF6], reference compound] gave a Density in series [1] of 1.37 g/mL. The Viscosity in series [2] (setting [5]) was 320.3 mpa · s. In addition, in series [3], the “Solubility in common solvents: Acetone” value is recorded as “miscible”, the “Solubility in common solvents: Et2O” value is “immiscible”, the “Solubility in common solvents: EtOH” value was “partly” and the “Solubility in common solvents: H2O” value is “partly”. Moreover, the “Solubility in common solvents: Hexane” value in series [3] is listed as “immiscible”.
“[1-ethylnitrile-3-methylimidazolium]Cl [[C2CNmim][Cl]]” yielded a Density in series [1] of 2.67 g/mL. This compound yielded a Viscosity in series [2] (setting [5]) of 2856 mpa · s. Besides, in series [3], the “Solubility in common solvents: Acetone” value was “immiscible”, the “Solubility in common solvents: Et2O” value is “immiscible”, the “Solubility in common solvents: EtOH” value is “miscible” and the “Solubility in common solvents: H2O” value is “miscible”. Besides, the “Solubility in common solvents: Hexane” value in series [3] is on record as “immiscible”.
In series [1], `CCCCn1cc[n+](C)c1.F[B-](F)(F)F` [[C4mim][BF4], 1-methyl-3-butylimidazolium tetrafluoroborate, reference compound] displayed a Density of 1.14 g/mL. Besides, in series [2] (20° C.), the Viscosity is on record as 115.2 cp. Also, in series [2] (setting [5]), the Viscosity stood at 115.2 mpa · s. Moreover, in series [3], the “Solubility in common solvents: Acetone” value is given as “miscible”, the “Solubility in common solvents: Et2O” value is listed as “immiscible”, the “Solubility in common solvents: EtOH” value is given as “immiscible” and the “Solubility in common solvents: H2O” value was “miscible”.
In series [1], “[1-butylnitrile-3-methylimidazolium]PF6 [[C4CNmim][PF6]]” gave a Density of 1.99 g/mL. For the same compound, in series [2] (setting [5]), the Viscosity is listed as 2181 mpa · s. Moreover, in series [3], the “Solubility in common solvents: Acetone” value is listed as “miscible”, the “Solubility in common solvents: Et2O” value is “immiscible”, the “Solubility in common solvents: EtOH” value is recorded as “immiscible” and the “Solubility in common solvents: H2O” value is given as “partly”. Further, the “Solubility in common solvents: Hexane” value in series [3] is recorded as “immiscible”.
